≈ marks a conversion by molar mass, not a printed value. Like-named read-outs stand apart in the source and are kept apart here.

Data set [1] deals with five pathogenic microorganisms. The data set is described as follows: Antibacterial activity in vitro, summary in words. In kind it is cell-based. The settings on record: doses as high as 128 μg/mL; Table 1. As to the method:
(§1) Antimicrob. Agents Chemother. 1978, 14, 807-811] penicillin G [Morris, J. J.; Page, M. I. Intra- and Intermolecular Catalysis in the Aminolysis of Benzylpenicillin. J. Chem. Soc., Perkin Trans 2 1980, 212-219], and 7-(β-phenylacetamido)-3′-desacetoxycephalosporanic acid (±)−2 [Page, M. L.; Proctor, P. Mechanism of β-Lactam Opening in Cephalosporins. J. Am. Chem. Soc. 1984, 106, 3820-3825] in vitro against five pathogenic microorganisms. The doses used were as high as 128 μg/mL.
(§2) The serial broth dilution method was used to study the antibiotic activity [Pursiano, T. A.; Misiek, M.; Leitner, F.; Price, K. E. Effect of Assay Medium on the Antibacterial Activity of Certain Penicillins and Cephalosporins. Antimicrob. Agents Chemother. 1973, 3, 33-39]. The inocula were prepared by use of the heart infusion broth (Difco Laboratories) to make 10^−4 dilutions of the overnight cultures. Tubes of the seeded antibiotic-containing media were incubated at 37° C. for 20 h. The lowest concentration of antibiotic that prevented visible growth of microorganisms was then determined.

Data set [2] can be described thus: Stability of β-lactams in water at various pH. The settings on record: for time within which pH of the aqueous solution changed to ˜1 (destruction of β-lactam ring): initial pH about 4.0; for time the β-lactam ring survived / time within which β-lactam ring was destructed: pH 1.0. The procedure: In another series of assays, we dissolved isodethiaazacephems (±)−3 and (±)−4 as well as isodethiaazacepham (±)−5 in distilled water (5.0 mg/mL).

The next data set relates to K. pneumoniae NCTC 418. The data set is described as follows: Antibacterial activity, serial broth dilution method (MIC). As to conditions: for MIC: Klebsiella pneumoniae, read-out: Minimal Inhibitory Concentrations. The class given is cell-based. The procedure:
as §1, §2
On the technique in general: In broth dilution the organism is exposed to a series of concentrations in liquid medium.

For the next data set, the system named is S. typhi O-901. The description is as above. In kind it is cell-based. As to conditions: 20 h; for MIC: Salmonella enterica, TYPHI, read-out: Minimal Inhibitory Concentrations; for Minimal Inhibitory Concentrations: S. typhi O-901, average of triplicate determinations, 37° C. The procedure: as §1, §2
Another data set concerns E. coli ATCC 39188. The data set is described as above. The settings on record: for MIC: Escherichia coli, read-out: Minimal Inhibitory Concentrations. In kind it is cell-based. As to the method: as §1, §2
A further data set relates to Ps. aeruginosa 1101-75. The data set is described as above. In kind it is cell-based. As to conditions: for MIC: read-out: Minimal Inhibitory Concentrations. As to the method:
as §1, §2

A further data set has as its system S. aureus FDA 209P. The description is as above. The class given is cell-based. As to conditions: 20 h; for MIC: Staphylococcus aureus, FDA209P, read-out: Minimal Inhibitory Concentrations. As to the method:
as §1, §2

Where [3] appears, read: NCTC418, K. pneumoniae NCTC 418, average of triplicate determinations, 37° C., 20 h.
Setting [4] is: ATCC39188, E. coli ATCC 39188, average of triplicate determinations, 37° C., 20 h.
The mark [5] stands for this setting: Pseudomonas aeruginosa, 110175, Ps. aeruginosa 1101-75, average of triplicate determinations, 37° C., 20 h.
[6] abbreviates: S. aureus FDA 209P, average of triplicate determinations, 37° C.
[7] abbreviates: Pseudomonas aeruginosa, 110175, 20 h.
[8] abbreviates: K. pneumoniae NCTC 418, average of triplicate determinations, 37° C., 20 h.
[9] abbreviates: E. coli ATCC 39188, average of triplicate determinations, 37° C., 20 h.
Where [10] appears, read: Ps. aeruginosa 1101-75, average of triplicate determinations, 37° C., 20 h.

In general, solubility refers to the dissolved amount per volume that the medium holds. As a reminder, the melting point is the temperature of the solid-liquid transition. In the case of `CS(=O)(=O)OC1=C(C(=O)O)N2C(=O)[C@@H](NC(=O)Cc3ccccc3)[C@H]2CN1` (racemic) [(±)-3, (6RS,7SR)-3-Methanesulfonyloxy-8-oxo-7-(phenylacetamido)-1,4-diazabicyclo[4.2.0]oct-2-ene-2-carboxylic Acid], the melting point lay in the range of 115 to 117 °C. In the data set “physchem” (water), this molecule showed a solubility of 21 mg/mL (≈ 53100 µM). Further, the “antibacterial activity (in words)” value in [1] is “promising antimicrobial activities”. Further, in data set [2] (distilled water, 5.0 mg/mL), the “initial pH value of the aqueous solution” value was “about 4.0” and the “time within which pH of the aqueous solution changed to ˜1 (destruction of β-lactam ring)” value is “three”. The “time the β-lactam ring survived” value in [2] is roughly 4 h. The MIC in the data set on K. pneumoniae NCTC 418 (setting [3]) was determined as 0.68 µg/mL (≈ 1.72 µM). Besides, the MIC with S. typhi O-901 was 1.2 µg/mL (≈ 3.03 µM). For the same molecule, the MIC in the data set on E. coli ATCC 39188 (setting [4]) is 0.95 µg/mL (≈ 2.4 µM). Moreover, the MIC in the data set with Ps. aeruginosa 1101-75 (setting [5]) is 4.38 µg/mL (≈ 11.1 µM). In the data set on S. aureus FDA 209P (setting [6]), the MIC was found to be 0.07 µg/mL (≈ 0.177 µM).

`O=C(Cc1ccccc1)N[C@@H]1C(=O)N2C(C(=O)O)=C(OS(=O)(=O)C(F)(F)F)NC[C@H]12` (racemic) [(±)-4, (6RS,7SR)-3-Trifluoromethanesulfonyloxy-8-oxo-7-(phenylacetamido)-1,4-diazabicyclo[4.2.0]oct-2-ene-2-carboxylic Acid] had a melting point of 100 to 102 °C. The same molecule gave a solubility in “physchem” (water) of 27 mg/mL (≈ 60100 µM). Further, the “antibacterial activity (in words)” value in data set [1] was “promising antimicrobial activities”. For the same molecule, in data set [2] (distilled water, 5.0 mg/mL), the “initial pH value of the aqueous solution” value is “about 4.0” and the “time within which pH of the aqueous solution changed to ˜1 (destruction of β-lactam ring)” value is “two”. Moreover, the “time the β-lactam ring survived” value in data set [2] is roughly 2 h. The MIC in the data set with K. pneumoniae NCTC 418 (setting [3]) was determined as 0.24 µg/mL (≈ 0.534 µM). Moreover, the MIC in the data set with S. typhi O-901 is 0.68 µg/mL (≈ 1.51 µM). Further, the MIC with E. coli ATCC 39188 (setting [4]) amounted to 0.09 µg/mL (≈ 0.2 µM). Also, the MIC in the data set on Ps. aeruginosa 1101-75 (setting [5]) is 1.15 µg/mL (≈ 2.56 µM). For the same molecule, the MIC in the data set with S. aureus FDA 209P (setting [6]) turned out to be 0.01 µg/mL (≈ 0.0223 µM).

Regarding `O=C(Cc1ccccc1)N[C@@H]1C(=O)N2C(C(=O)O)=C(O)NC[C@H]12` (racemic) [(±)-10, (6RS,7SR)-3-Hydroxy-8-oxo-7-(phenylacetamido)-1,4-diazabicyclo[4.2.0]-oct-2-ene-2-carboxylic Acid], the melting point fell in the range of 140 to 142 °C. Besides, the concentration in solution in “physchem” (pH 6.8, aqueous buffer) (solubility) came to 35 mg/mL (≈ 110000 µM). The “time stable in phosphate buffer” value in [2] (phosphate buffer (0.10 M, pH 6.8)) is given as “two”. Moreover, in the data set with K. pneumoniae NCTC 418 (NCTC418, 20 h), the MIC was greater than 128 µg/mL. In addition, the MIC in the data set on S. typhi O-901 was greater than 128 µg/mL. In the data set with E. coli ATCC 39188 (setting [4]), the MIC worked out at 94.7 µg/mL (≈ 298 µM). Also, in the data set with Ps. aeruginosa 1101-75 (setting [7]), the MIC was greater than 128 µg/mL. Besides, in the data set with S. aureus FDA 209P (setting [6]), the MIC came to 29.5 µg/mL (≈ 93 µM).

For the molecule `CS(=O)(=O)OC1=C(C(=O)OCc2ccccc2)N2C(=O)[C@@H](NC(=O)Cc3ccccc3)[C@H]2CN1` (racemic) [(±)-11, Benzyl (6RS,7SR)-3-Methanesulfonyloxy-8-oxo-7-(phenylacetamido)-1,4-diazabicyclo[4.2.0]oct-2-ene-2-carboxylate], in data set [1], the “antibacterial activity (in words)” value is listed as “do not exhibit antibacterial activity”. Besides, the MIC with K. pneumoniae NCTC 418 (NCTC418, 20 h) was greater than 128 µg/mL; in the data set on S. typhi O-901 it was greater than 128 µg/mL; in the data set with E. coli ATCC 39188 (ATCC39188, 20 h), greater than 128 µg/mL; in the data set with Ps. aeruginosa 1101-75 (setting [7]) it was greater than 128 µg/mL; in the data set with S. aureus FDA 209P it was greater than 128 µg/mL.

On to `O=C(Cc1ccccc1)N[C@@H]1C(=O)N2C(C(=O)OCc3ccccc3)=C(OS(=O)(=O)C(F)(F)F)NC[C@H]12` (racemic) [(±)-12, Benzyl (6RS,7SR)-3-Trifluoromethanesulfonyloxy-8-oxo-7-(phenylacetamido)-1,4-diazabicyclo[4.2.0]oct-2-ene-2-carboxylate], for which, in data set [1], the “antibacterial activity (in words)” value is “do not exhibit antibacterial activity”. Moreover, the MIC is greater than 128 µg/mL in the data set with K. pneumoniae NCTC 418 (NCTC418, 20 h); greater than 128 µg/mL in the data set on S. typhi O-901; greater than 128 µg/mL in the data set on E. coli ATCC 39188 (ATCC39188, 20 h); greater than 128 µg/mL in the data set on Ps. aeruginosa 1101-75 (setting [7]); greater than 128 µg/mL in the data set with S. aureus FDA 209P.

Take `CS(=O)(=O)C1=C(O)NC[C@@H]2[C@H](NC(=O)Cc3ccccc3)C(=O)N12` (racemic) [(±)-17, (6RS,7SR)-3-Hydroxy-8-oxo-7-(phenylacetamido)-1,4-diazabicyclo[4.2.0]oct-2-ene-2-methylsulfone]: the “time within which β-lactam ring was destructed” value in data set [2] is on record as “two”. Also, in the data set on S. typhi O-901, the “Minimal Inhibitory Concentrations” value was greater than 128 µg/mL.

In the case of `CC1=C(C(=O)O)N2C(=O)C(NC(=O)Cc3ccccc3)C2SC1` (single isomer, unassigned; (+)) [(+)-2, 7-(β-phenylacetamido)-3′-desacetoxycephalosporanic acid, reference compound], the “Minimal Inhibitory Concentrations” value in the data set with K. pneumoniae NCTC 418 (setting [8]) came out at 2.98 µg/mL; with S. typhi O-901, 24.50 µg/mL; with E. coli ATCC 39188 (setting [9]) it was 13.13 µg/mL; with Ps. aeruginosa 1101-75 (setting [10]), 100.0 µg/mL; in the data set on S. aureus FDA 209P (setting [6]) it was 0.64 µg/mL.

For `CO/N=C(\C(=O)N[C@@H]1C(=O)N2C(C(=O)O)=C(COC(C)=O)CS[C@H]12)c1csc(N)n1` [cefotaxime, reference compound], the MIC was determined as 10.2 µg/mL (≈ 22.5 µM) in the data set on K. pneumoniae NCTC 418 (setting [3]); 20.3 µg/mL (≈ 44.6 µM) with S. typhi O-901; 0.25 µg/mL (≈ 0.549 µM) in the data set with E. coli ATCC 39188 (setting [4]); 62.4 µg/mL (≈ 137 µM) in the data set with Ps. aeruginosa 1101-75 (setting [5]); 0.08 µg/mL (≈ 0.176 µM) with S. aureus FDA 209P (setting [6]).

As for `CC1(C)S[C@@H]2[C@H](NC(=O)Cc3ccccc3)C(=O)N2[C@H]1C(=O)O` [penicillin G, reference compound], the “Minimal Inhibitory Concentrations” value was greater than 128 µg/mL in the data set with S. typhi O-901, 2.30 µg/mL with E. coli ATCC 39188 (setting [9]) and 0.40 µg/mL in the data set with S. aureus FDA 209P (setting [6]).

Consider “(2RS,6RS,7SR)- and (2SR,6RS,7SR)-2-Methanesulfonyl-3,8-dioxo-7-(phenylacetamido)-1,4-diazabicyclo[4.2.0]octane-2-carboxylic Acid [(±)-5]”, for which the “antibacterial activity (in words)” value in data set [1] is recorded as “profound antibacterial activity”. The “time within which β-lactam ring was destructed” value in data set [2] (acidic solution) is recorded as no more than 3 h. Moreover, the time of decarboxylation in [2] (basic solution, pH 12) was no more than 20 min. Besides, the “initial pH value of the aqueous solution” value in data set [2] (distilled water, 5.0 mg/mL) was “about 2.0”. The “time within which pH of aqueous solution changed from 2.0 to 6.0 (decarboxylation to (±)−17)” value in data set [2] (distilled water, 5.0 mg/mL) is reported as 5-6 days. Also, the “Minimal Inhibitory Concentrations” value in the data set with K. pneumoniae NCTC 418 (setting [8]) was 51.02 µg/mL; with S. typhi O-901, 65.30 µg/mL; in the data set on E. coli ATCC 39188 (setting [9]), 97.17 µg/mL; in the data set on Ps. aeruginosa 1101-75 (setting [10]), 120.0 µg/mL; in the data set with S. aureus FDA 209P (setting [6]), 48.50 µg/mL.
